Measured values taken from patent US9624249B2, “Nucleoside kinase bypass compositions and methods” (Merck Sharp & Dohme Corp., priority 2013, dated 2017).
Read-outs that look alike come from different tables or passages of the source.

Assays:
Assay type in all cases: cell-based
[1] = system: hepatitis virus C (HCV) genotype 1c; assay: HCV replicon, genotype printed as 1c; settings: read-out: Replicon: EC50 (1c)
[2] = system: hepatitis virus C (HCV) genotype 1a; assay: HCV subgenomic replicon assay (RHEPTAQ), genotype 1a; settings: Hepatitis C virus, Table 4, genotype 1a; read-out: Replicon: EC50 (1a)
Source text: (§1) Table 3 and Table 4 summarize the measured activities of these prodrugs as assessed in a subgenomic replicon assay (RHEPTAQ), against genotypes 1a, 1b and 2a.

[3] = Tox: EdU/CellCount CC50
[4] = system: hepatitis virus C (HCV) genotype 1b; assay: HCV subgenomic replicon assay (RHEPTAQ), genotype 1b; settings: Hepatitis C virus, Table 4, genotype 1b; read-out: Replicon: EC50 (1b)
Source text: as §1

C[C@@]1(F)[C@@H]2OP(=O)(OC3CSSC[C@@H]3OCc3ccccc3)OCC2O[C@H]1n1ccc(=O)[nH]c1=O (some centres unmarked)
EC50 [1]: 0.101 µM
EC50 [2]: 0.092 µM
CC50 ([3]; CellCount readout, read-out: Tox: CellCount CC50): 85 µM
CC50 ([3]; EdU readout, read-out: Tox: EdU CC50): 30 µM
EC50 [4]: 0.107 µM
